Reference: ChEMBL document CHEMBL5131375, “Recent Developments in the Use of Kinase Inhibitors for Management of Viral Infections” (J Med Chem, 2022)

Columns and labels:
Measles morbillivirus = type: functional
in vitro [1] = conditions: human, pbl
[2] = molecular target: Receptor tyrosine-protein kinase erbB-2 (Homo sapiens, UniProt P04626)
Huh7.5.1 = assay: Cytotoxicity against human Huh-7.5.1 cells at 0.9 uM; type: toxicity, cell-based; conditions: huh7.5.1, 0.9 µM
Dengue virus [3] = assay: microbe, parasite or virus in culture
Influenza A virus [4] = assay: microbe, parasite or virus in culture; type: functional, organism-based
[5] = Cytotoxicity against human A549 cells; type: toxicity, cell-based
[6] = molecular target: Phosphatidylinositol 4-phosphate 3-kinase C2 domain-containing subunit beta (Homo sapiens, UniProt O00750); assay: Inhibition of PIK3C2beta (unknown origin)
Influenza B virus [7] = assay: Antiviral activity against influenza B virus; type: functional, organism-based
Human rhinovirus sp. = assay: Antiviral activity against RV; type: functional, organism-based, Enterovirus
[8] = molecular target: Epidermal growth factor receptor (Homo sapiens, UniProt P00533)
in vitro [9] = conditions: human, Huh-7 cells
in vitro [10] = conditions: dog
Hepatitis C virus [11] = assay: microbe, parasite or virus in culture
[12] = tested on: Human immunodeficiency virus 1; assay: Antiviral activity against HIV-1 assessed as inhibition of Nef mediated replication; type: functional, organism-based
[13] = Cytotoxicity against human CEM-T4 cells; type: toxicity, cell-based
Influenza A virus [14] = assay: microbe, parasite or virus in culture; conditions: H1N1v, A549
Influenza A virus [15] = assay: microbe, parasite or virus in culture; conditions: A/FPV/Bratislava/79 (H7N7), MDCK-II
Influenza A virus [16] = assay: microbe, parasite or virus in culture; conditions: Lung, 24 h
Influenza A virus [17] = assay: microbe, parasite or virus in culture; conditions: RB1 H1N1
Influenza A virus [18] = assay: microbe, parasite or virus in culture; conditions: MB1 H5N1
Influenza A virus [19] = assay: microbe, parasite or virus in culture; conditions: GSB H5N1
Influenza A virus [20] = assay: microbe, parasite or virus in culture; conditions: FPV H7N7
Influenza A virus [21] = assay: microbe, parasite or virus in culture; conditions: H7N7
[22] = Cytotoxicity against human NCI-H1650 cells; type: toxicity, cell-based
Focal adhesion kinase 1 = Focal adhesion kinase 1 (Homo sapiens, UniProt Q05397); assay: Inhibition of FAK (unknown origin)
[23] = Cytotoxicity against human NCI-H358 cells; type: toxicity, cell-based
[24] = Cytotoxicity against MDDC cells (unknown origin); type: toxicity, cell-based
[25] = molecular target: Calcium/calmodulin-dependent protein kinase type II subunit gamma (Homo sapiens, UniProt Q13555); assay: Inhibition of CAMK-II (unknown origin)
[26] = Cytotoxicity against HMC3 cells; type: toxicity, cell-based; conditions: human
Human betaherpesvirus 5 [27] = assay: microbe, parasite or virus in culture; type: functional, organism-based
[28] = molecular target: T1, Cyclin-dependent kinase 7 (Homo sapiens, UniProt P50613)
[29] = molecular target: T1, Cyclin-dependent kinase 7; remark: listed apart in the source
in vitro [30] = conditions: human, hff
Dengue virus [31] = assay: Antiviral activity against DENV infected in HEK293 cells; type: functional, organism-based
[32] = Cytotoxicity against HEK293 cells; type: toxicity, cell-based; conditions: human
Influenza A virus [33] = assay: Antiviral activity against influenza A virus (A/WSN/1933) strain; type: functional, organism-based
Influenza A virus [34] = assay: microbe, parasite or virus in culture; type: functional, organism-based; conditions: A/ck/Yamaguchi/7/2004 (H5N10)
Influenza A virus [35] = assay: microbe, parasite or virus in culture; type: functional, organism-based; conditions: A/Anhui/1/2013 (H7N9)
Influenza A virus [36] = assay: microbe, parasite or virus in culture; type: functional, organism-based; conditions: H3N2
Influenza A virus [37] = assay: microbe, parasite or virus in culture; type: functional, organism-based; conditions: H7N9
Influenza A virus [38] = assay: microbe, parasite or virus in culture; type: functional, organism-based; conditions: H5N1
[39] = molecular target: Tyrosine-protein kinase JAK2 (Homo sapiens, UniProt O60674); conditions: dose 50.0 nM
Zika virus [40] = assay: Antiviral activity against ZIKV MR766 infected in 1 hr pretreated rhesus monkey LLC-MK2 cells measured after 24 to 72 hrs; type: functional, organism-based
[41] = Cytotoxicity against human HCT-116 cells; type: toxicity, cell-based
Zika virus [42] = assay: microbe, parasite or virus in culture
Murine coronavirus [43] = assay: Antiviral activity against mCoV-68 infected in african green monkey Vero cells incubated for 7 days by counting number of plaque by crystal violet staining method; type: functional, organism-based; conditions: Murine coronavirus, 68, Vero, 168 h
Murine coronavirus [44] = assay: Antiviral activity against MHV; type: functional, organism-based
[45] = Cytotoxicity against mouse NIH3T3 cells; type: toxicity, cell-based
[46] = molecular target: Cyclin-dependent kinase 2 (Homo sapiens, UniProt P24941)
[47] = Cytotoxicity against human astrocyte cells; type: toxicity, cell-based
Hepatitis B virus = assay: microbe, parasite or virus in culture; type: functional, organism-based
HepG2 = assay: Cytotoxicity against human HepG2 cells at 1 uM; type: toxicity, cell-based; conditions: hepg2, 1 µM
in vitro [48] = conditions: human, ccrf-cem
in vitro [49] = conditions: human, jurkat
in vitro [50] = conditions: human, u-937
Human alphaherpesvirus 1 = assay: microbe, parasite or virus in culture; type: functional, organism-based
[51] = molecular target: Inhibitor of nuclear factor kappa-B kinase subunit epsilon (Homo sapiens, UniProt Q14164); assay: Inhibition of IKK epsilon (unknown origin)
Human alphaherpesvirus 2 = assay: Antiviral activity against HSV-2 assessed as reduction in virus titre at 10 uM relative to control; type: functional; design: scale not given: the % may be the effect or the level left
[52] = Cytotoxicity against human HCE cells; type: toxicity, cell-based
[53] = Cytotoxicity against HEK cells; type: toxicity, cell-based; conditions: human
in vitro [54] = conditions: human, HeLa cells
Zaire ebolavirus = assay: microbe, parasite or virus in culture; type: functional, organism-based
Hepatitis C virus [55] = assay: Antiviral activity against HCV assessed as fold reduction in virus titre at 10 uM; type: functional, Hepacivirus hominis
in vitro [56] = conditions: human, hek-293t
[57] = Cytotoxicity against human LU cells; type: toxicity, cell-based
Human betaherpesvirus 5 [58] = assay: Antiviral activity against HCMV assessed as inhibition of DNA synthesis at 10 uM relative to control; type: functional
[59] = Cytotoxicity against human MCF7 cells; type: toxicity, cell-based
[60] = molecular target: Protein kinase C beta type (Homo sapiens, UniProt P05771); assay: Inhibition of PKCbeta2 (unknown origin)
Influenza A virus [61] = assay: Antiviral activity against influenza A virus assessed as log reduction of virus at 5 to 10 uM; type: functional; conditions: dose 5-10 µM
Influenza B virus [62] = assay: Antiviral activity against influenza B virus assessed as log reduction of virus at 5 to 10 uM; type: functional; conditions: dose 5-10 µM
[63] = Cytotoxicity against human HL-60 cells; type: toxicity, cell-based
Influenza A virus [64] = assay: Antiviral activity against influenza A virus infected in human A549 cells assessed as inhibition of viral replication at 4 uM relative to control; type: functional; design: scale not given: the % may be the effect or the level left
Lyssavirus rabies = assay: microbe, parasite or virus in culture; type: functional, organism-based
[65] = tested on: Transmissible gastroenteritis virus; assay: Antiviral activity against TGEV assessed as reduction in virus titre at 4 uM; type: functional
[66] = Inhibition of PDGF (unknown origin); design: species or system Homo sapiens
[67] = tested on: Transmissible gastroenteritis virus; assay: Antiviral activity against TGEV assessed as log reduction in virus progeny at 4 uM; type: functional
Murine coronavirus [68] = assay: Antiviral activity against MHV assessed as log reduction in virus progeny at 4 uM; type: functional
[69] = tested on: Porcine epidemic diarrhea virus; assay: Antiviral activity against PEDV assessed as log reduction in virus progeny at 4 uM; type: functional
[70] = tested on: Feline infectious peritonitis virus; assay: Antiviral activity against FIPV assessed as log reduction in virus progeny at 4 uM; type: functional
[71] = Cytotoxicity against pig PK-15 cells; type: toxicity, cell-based, Sus scrofa
[72] = Cytotoxicity against golden hamster BSR cells; type: toxicity, cell-based, Mesocricetus auratus

T1 sequence (P50613 whole entry): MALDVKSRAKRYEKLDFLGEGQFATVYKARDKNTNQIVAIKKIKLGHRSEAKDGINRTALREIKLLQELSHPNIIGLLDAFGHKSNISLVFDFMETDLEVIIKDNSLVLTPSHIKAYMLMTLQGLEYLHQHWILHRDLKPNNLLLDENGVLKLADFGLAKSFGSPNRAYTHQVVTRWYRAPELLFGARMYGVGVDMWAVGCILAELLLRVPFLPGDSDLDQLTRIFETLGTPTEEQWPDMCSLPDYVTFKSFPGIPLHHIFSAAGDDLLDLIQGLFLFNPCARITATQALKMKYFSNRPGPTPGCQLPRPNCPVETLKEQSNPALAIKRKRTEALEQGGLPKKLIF
Protein kinase C beta type, sequence (P05771 whole entry): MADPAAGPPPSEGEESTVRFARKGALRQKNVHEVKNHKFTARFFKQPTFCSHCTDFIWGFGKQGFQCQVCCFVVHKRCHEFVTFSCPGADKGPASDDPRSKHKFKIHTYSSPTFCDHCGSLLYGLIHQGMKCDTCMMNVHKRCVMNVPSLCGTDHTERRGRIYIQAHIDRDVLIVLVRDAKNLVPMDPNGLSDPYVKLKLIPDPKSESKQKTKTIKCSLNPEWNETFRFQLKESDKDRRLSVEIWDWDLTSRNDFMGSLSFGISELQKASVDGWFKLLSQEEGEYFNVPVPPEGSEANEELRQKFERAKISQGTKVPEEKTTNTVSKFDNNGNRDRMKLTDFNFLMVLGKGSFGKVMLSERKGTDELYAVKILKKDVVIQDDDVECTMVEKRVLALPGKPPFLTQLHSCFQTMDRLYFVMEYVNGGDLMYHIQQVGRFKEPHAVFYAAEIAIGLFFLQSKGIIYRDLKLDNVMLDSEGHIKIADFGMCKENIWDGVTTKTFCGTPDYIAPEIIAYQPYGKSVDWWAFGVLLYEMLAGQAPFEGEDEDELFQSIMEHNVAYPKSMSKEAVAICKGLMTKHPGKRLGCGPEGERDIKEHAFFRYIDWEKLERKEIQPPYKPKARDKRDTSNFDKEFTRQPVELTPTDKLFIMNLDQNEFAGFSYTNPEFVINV
Tyrosine-protein kinase JAK2, sequence (O60674 whole entry): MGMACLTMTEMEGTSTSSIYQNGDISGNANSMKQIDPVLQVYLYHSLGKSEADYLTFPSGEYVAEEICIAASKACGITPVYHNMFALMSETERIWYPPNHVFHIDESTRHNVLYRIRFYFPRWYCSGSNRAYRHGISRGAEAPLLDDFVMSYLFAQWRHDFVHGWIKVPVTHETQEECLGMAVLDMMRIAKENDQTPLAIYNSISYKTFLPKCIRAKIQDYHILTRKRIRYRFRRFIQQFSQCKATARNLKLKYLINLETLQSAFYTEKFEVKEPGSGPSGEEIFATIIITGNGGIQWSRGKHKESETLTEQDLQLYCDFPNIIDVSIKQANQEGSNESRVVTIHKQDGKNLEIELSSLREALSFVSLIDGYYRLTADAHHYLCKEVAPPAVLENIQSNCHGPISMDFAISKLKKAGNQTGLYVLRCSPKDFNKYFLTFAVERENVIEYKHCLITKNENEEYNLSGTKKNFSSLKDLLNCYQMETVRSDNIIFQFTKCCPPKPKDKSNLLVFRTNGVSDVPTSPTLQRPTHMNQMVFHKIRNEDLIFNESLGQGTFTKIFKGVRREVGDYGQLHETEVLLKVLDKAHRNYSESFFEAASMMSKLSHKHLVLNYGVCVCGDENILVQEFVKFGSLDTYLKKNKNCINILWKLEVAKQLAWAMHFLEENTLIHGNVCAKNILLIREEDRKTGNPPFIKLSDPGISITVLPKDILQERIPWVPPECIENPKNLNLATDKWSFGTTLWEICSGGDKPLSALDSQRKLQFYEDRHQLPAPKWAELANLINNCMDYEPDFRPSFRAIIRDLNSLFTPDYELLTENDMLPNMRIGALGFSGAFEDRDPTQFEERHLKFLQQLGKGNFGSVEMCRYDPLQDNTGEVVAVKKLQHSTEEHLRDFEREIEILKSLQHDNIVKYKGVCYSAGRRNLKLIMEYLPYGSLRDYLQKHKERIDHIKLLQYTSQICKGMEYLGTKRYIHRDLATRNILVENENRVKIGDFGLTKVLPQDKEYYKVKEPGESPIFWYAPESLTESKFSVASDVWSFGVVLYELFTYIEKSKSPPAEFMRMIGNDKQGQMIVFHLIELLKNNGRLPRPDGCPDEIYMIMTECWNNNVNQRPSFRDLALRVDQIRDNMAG
Receptor tyrosine-protein kinase erbB-2, sequence (P04626 whole entry): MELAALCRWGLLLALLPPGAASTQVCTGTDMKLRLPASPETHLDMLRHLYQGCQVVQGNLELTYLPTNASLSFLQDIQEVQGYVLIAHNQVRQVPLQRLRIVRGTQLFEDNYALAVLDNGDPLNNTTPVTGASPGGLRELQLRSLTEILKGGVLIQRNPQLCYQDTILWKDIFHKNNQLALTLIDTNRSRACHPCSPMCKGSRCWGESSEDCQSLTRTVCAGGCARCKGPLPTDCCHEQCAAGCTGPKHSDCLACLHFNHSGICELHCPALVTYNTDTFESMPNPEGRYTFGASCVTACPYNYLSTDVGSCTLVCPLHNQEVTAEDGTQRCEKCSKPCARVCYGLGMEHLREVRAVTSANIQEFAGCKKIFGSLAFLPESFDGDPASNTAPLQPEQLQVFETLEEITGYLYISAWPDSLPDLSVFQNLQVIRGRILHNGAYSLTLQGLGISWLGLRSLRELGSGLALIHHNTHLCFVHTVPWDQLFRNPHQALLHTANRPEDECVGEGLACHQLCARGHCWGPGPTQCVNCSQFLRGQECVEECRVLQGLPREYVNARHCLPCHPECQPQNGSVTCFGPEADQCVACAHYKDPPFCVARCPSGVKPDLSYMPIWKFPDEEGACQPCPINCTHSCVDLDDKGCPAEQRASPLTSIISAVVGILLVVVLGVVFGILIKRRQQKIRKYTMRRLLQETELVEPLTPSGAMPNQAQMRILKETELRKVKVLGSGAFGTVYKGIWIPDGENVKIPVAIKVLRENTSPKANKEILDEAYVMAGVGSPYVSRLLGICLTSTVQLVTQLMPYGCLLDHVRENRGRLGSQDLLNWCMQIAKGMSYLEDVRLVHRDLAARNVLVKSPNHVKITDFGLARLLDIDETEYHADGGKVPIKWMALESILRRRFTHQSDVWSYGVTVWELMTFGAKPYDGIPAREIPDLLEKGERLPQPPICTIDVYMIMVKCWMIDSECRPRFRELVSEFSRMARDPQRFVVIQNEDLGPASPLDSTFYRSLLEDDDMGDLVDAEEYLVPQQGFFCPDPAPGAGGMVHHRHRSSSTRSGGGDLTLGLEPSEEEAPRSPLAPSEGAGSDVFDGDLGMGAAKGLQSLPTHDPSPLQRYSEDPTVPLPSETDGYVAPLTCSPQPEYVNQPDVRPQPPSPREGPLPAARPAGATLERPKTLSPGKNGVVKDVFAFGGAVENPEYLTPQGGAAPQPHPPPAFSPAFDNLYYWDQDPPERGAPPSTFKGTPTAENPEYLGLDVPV
Epidermal growth factor receptor, sequence (P00533 whole entry): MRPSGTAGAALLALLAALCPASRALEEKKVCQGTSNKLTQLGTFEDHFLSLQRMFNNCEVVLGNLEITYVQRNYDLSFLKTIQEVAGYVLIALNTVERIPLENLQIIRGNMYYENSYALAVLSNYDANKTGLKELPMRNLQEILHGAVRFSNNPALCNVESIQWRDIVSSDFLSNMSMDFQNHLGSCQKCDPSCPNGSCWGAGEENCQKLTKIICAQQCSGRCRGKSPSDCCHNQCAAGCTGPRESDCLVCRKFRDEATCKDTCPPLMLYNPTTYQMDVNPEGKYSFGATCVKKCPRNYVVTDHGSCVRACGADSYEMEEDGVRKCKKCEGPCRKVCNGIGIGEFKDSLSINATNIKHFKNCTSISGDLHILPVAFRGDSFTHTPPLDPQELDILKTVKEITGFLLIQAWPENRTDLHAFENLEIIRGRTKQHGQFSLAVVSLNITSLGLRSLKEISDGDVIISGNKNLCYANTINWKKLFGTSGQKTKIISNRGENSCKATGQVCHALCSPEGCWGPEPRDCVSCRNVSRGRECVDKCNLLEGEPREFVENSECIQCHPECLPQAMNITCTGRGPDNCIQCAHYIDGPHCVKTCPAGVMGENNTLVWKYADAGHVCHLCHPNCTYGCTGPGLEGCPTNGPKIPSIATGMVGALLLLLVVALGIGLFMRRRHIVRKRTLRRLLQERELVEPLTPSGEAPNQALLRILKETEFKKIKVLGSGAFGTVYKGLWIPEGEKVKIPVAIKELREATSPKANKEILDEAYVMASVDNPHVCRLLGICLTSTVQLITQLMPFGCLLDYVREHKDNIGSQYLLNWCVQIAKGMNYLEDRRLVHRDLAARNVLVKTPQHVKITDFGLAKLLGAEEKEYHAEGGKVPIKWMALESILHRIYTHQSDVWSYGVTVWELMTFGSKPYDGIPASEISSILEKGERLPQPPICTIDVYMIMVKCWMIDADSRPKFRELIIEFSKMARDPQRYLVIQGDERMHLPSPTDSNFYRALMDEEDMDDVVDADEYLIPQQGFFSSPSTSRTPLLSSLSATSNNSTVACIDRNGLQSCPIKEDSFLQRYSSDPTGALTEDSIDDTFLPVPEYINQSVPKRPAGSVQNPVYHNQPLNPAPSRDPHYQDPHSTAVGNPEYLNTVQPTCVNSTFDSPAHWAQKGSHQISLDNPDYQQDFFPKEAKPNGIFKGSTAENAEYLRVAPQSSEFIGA

Oc1ccc(Nc2nc(-c3ccc(Cl)cc3)cs2)cc1
inhibition (INH) (Measles morbillivirus): 70%
CC50 (in vitro [1]): > 5000 nM

CCN(CC)CC1CCN(c2ncc3ncnc(Nc4ccc(F)c(Cl)c4)c3n2)CC1
IC50 [2]: 290 nM
Activity (Huh7.5.1): Non-Toxic
IC50 (Dengue virus [3]): 900 nM

O=C(Cc1cccs1)Nc1cccc(-c2ccc3nnc(-c4cccnc4)n3n2)c1
EC50 (Influenza A virus [4]): 350 nM
CC50 [5]: > 50000 nM
IC50 [6]: 430 nM
EC50 (Influenza B virus [7]): 400 nM
EC50 (Human rhinovirus sp.): 50 nM
IC50 [8]: 79 nM
CC50 (in vitro [9]): > 50000 nM
CC50 (in vitro [10]; MDCK cells): > 50000 nM
EC50 (Hepatitis C virus [11]): 760 nM

NC(=S)n1nc(-c2ccc([N+](=O)[O-])cc2)c(/N=N/c2cccc(Cl)c2)c1O
IC50 [12]: 300 nM
CC50 [13]: > 10000 nM

N#CC(=C(/N)Sc1ccccc1N)/C(C#N)=C(\N)Sc1ccccc1N
CC50 (in vitro [10]; mdck): > 50000 nM
EC50 (Influenza A virus [14]): 1200 nM
EC50 (Influenza A virus [15]): 74700 nM
EC50 (Influenza A virus [16]): 620000 nM
IC50 (Dengue virus [3]): 14200 nM
EC50 (Influenza A virus [17]): 1210 nM
EC50 (Influenza A virus [18]): 4430 nM
EC50 (Influenza A virus [19]): 36600 nM
EC50 (Influenza A virus [20]): 82700 nM
EC50 (Influenza A virus [21]): 620000 nM

Nc1cc(N)c(N)cc1N
CC50 [5]: > 1000 nM
CC50 [22]: > 1000 nM
IC50 (Focal adhesion kinase 1): 1000 nM
CC50 [23]: > 1000 nM

COc1cc(-c2cnc3c(N4C[C@@H](C)O[C@@H](C)C4)snc3c2)ccc1N
CC50 [24]: > 20000 nM
EC50 (Dengue virus [3]): 3500 nM

COc1ccc(S(=O)(=O)N(CCCC(=O)C2CCCCCC2)c2ccccc2)cc1
IC50 [25]: 790 nM
CC50 [26]: > 12500 nM

CC(C)c1cnn2c(NCc3ccccc3-n3cccn3)nc(OC3CCCNC3)nc12 (stereo not given)
EC50 (Human betaherpesvirus 5 [27]): 24 nM
IC50 [28]: < 5 nM
IC50 [29]: < 5 nM
CC50 (in vitro [30]): 6200 nM

O=S(=O)(NCCNC/C=C/c1ccc(Br)cc1)c1cccc2cnccc12
IC50 (Dengue virus [31]): 900 nM
CC50 [32]: > 1000 nM
IC50 (Dengue virus [3]): 960 nM

CC1=C(C)C2NC(=O)C(CN3C(=S)N([C@@H](C)c4ccccc4)C(=O)C3C3CC3)C=C2C=C1 (stereo not given in full)
IC50 (Influenza A virus [33]): 12 nM
IC50 (Influenza A virus [34]): 20 nM
IC50 (Influenza A virus [35]): 20 nM
EC50 (Influenza A virus [36]): 20 nM
EC50 (Influenza A virus [37]): 20000 nM
EC50 (Influenza A virus [38]): 20000 nM
inhibition [39]: 61%
CC50 (in vitro [10]; MDCK cells): 3800 nM

CC(C)c1[nH]n(-c2c(Cl)cccc2Cl)c2nc(Cc3ccc(OCCO)cc3)nc(=O)c1-2
IC50 (Zika virus [40]): 27 nM
IC50 [28]: 71 nM
CC50 [41]: 40 nM
IC50 (Zika virus [42]): 90 nM

CC(C)=CCC[C@](C)(O)C1CC[C@]2(C)[C@@H]1[C@H](O)C[C@@H]1[C@@]3(C)CC[C@H](O[C@@H]4O[C@H](CO)[C@@H](O)[C@H](O)[C@H]4O[C@@H]4O[C@H](CO)[C@@H](O)[C@H](O)[C@H]4O)C(C)(C)[C@@H]3CC[C@]12C (stereo not given in full)
IC50 (Murine coronavirus [43]): 10000 nM
IC50 (Murine coronavirus [44]): 10000 nM
CC50 [45]: > 50000 nM

CCCc1cnc(NC(=O)[C@@H](C)c2ccc(NC(C)=O)cc2)s1
IC50 [46]: 31 nM
CC50 [47]: > 10000 nM
IC50 (Zika virus [42]): 90 nM

Cc1n[nH]c2ccc(-c3cncc(OC[C@@H](N)Cc4c[nH]c5ccccc45)c3)cc12 [A-443654]
inhibition (INH) (Hepatitis B virus): 50%
Activity (HepG2): Non-Toxic

O=C1Cc2c([nH]c3ccc([N+](=O)[O-])cc23)-c2ccccc2N1 [ALSTERPAULLONE]
CC50 (in vitro [48]): > 1000 nM
CC50 (in vitro [49]): > 1000 nM
CC50 (in vitro [50]): > 1000 nM

O=C(NCCCNc1nc(Nc2cccc(NC(=O)N3CCCC3)c2)ncc1I)c1cccs1 [BX-795]
EC50 (Human alphaherpesvirus 1): 10000 nM
IC50 [51]: 41 nM
Activity (Human alphaherpesvirus 2): >90%
CC50 [52]: 46000 nM
CC50 [53]: 46000 nM
CC50 (in vitro [54]): 46000 nM

O=c1cc(N2CCOCC2)oc2c(-c3ccccc3)cccc12 [LY-294002]
EC50 (Zaire ebolavirus): 1800 nM
fold change (FC) (Hepatitis C virus [55]): 5
CC50 (in vitro [56]): > 20000 nM

Cn1cnc2c(NCc3ccccc3)nc(NCCO)nc21 [OLOMOUCINE]
CC50 [57]: > 15000 nM
inhibition at 10 µM (Human betaherpesvirus 5 [58]): 50%

O=C1NC(=O)C(c2c[nH]c3ccccc23)=C1c1c[nH]c2ccccc12 [RO-316233]
CC50 [59]: > 8000 nM
IC50 [60]: 16 nM
log(activity) (Influenza A virus [61]): 1
log(activity) (Influenza B virus [62]): 1
CC50 [63]: > 8000 nM

CC(C)(C)c1cc(C=C(C#N)C#N)cc(C(C)(C)C)c1O [TYRPHOSTIN A9]
Activity (Influenza A virus [64]): 50%
EC50 (Lyssavirus rabies): 900 nM
log(activity) [65]: 3
IC50 [66]: 500 nM
log(activity) [67]: 2.3
log(activity) (Murine coronavirus [68]): 2.3
log(activity) [69]: 2.3
log(activity) [70]: 2.3
CC50 [71]: > 6000 nM
CC50 [72]: 150000 nM
